Assay [1] deals with guinea pig Kv7.1/KCNE1 channel (Cavia porcellus, UniProt A6Y9U2). Put plainly: Two-electrode voltage clamp of Kv7.1/KCNE1 expressed in Xenopus laevis oocytes. It is filed as cell-based. The text has this:
(§1) Isolation of Xenopus laevis oocytes was approved by the Linköping Animal Care and Use Committee (Permits #1941 and #14515) and conforms to national and international guidelines. All procedures conform to the guidelines from Directive 2010/63/EU of the European Parliament on the protection of animals used for scientific purposes. A total of 30 female adult (minimum 1 year of age) Xenopus laevis animals (from Nasco, WI, USA) underwent surgery to isolate oocytes. The frogs were anaesthetized for 15 minutes in a bath of 1.4 g/L MS-222 Sandoz (Ethyl 3-aminobenzoate methanesulfonate, Sigma Aldrich, Stockholm). The depth of anesthesia was monitored by checking for reflexes when the paws were pinched. A small incision was made on the abdomen to expose lobes of oocytes, which were collected using a surgical scissor. The small incision was closed with suture and local anesthesia (Marcain 5 mg/ml and Xylocain 2%, Distansapoteket, Stockholm) topically applied to relieve pain subsequent to surgery. At the experimental endpoint (in association with the 6th surgery), animals were sacrificed by decapitation under deep anesthesia (which was induced by the bath of 1.4 g/L MS-222 Sandoz). ARRIVE guidelines were followed. Note that experiments were performed on isolated oocytes only (no in vivo experiments were performed). Oocytes were isolated and maintained as previously described. The constructs used had the following accession numbers: human Kv7.1: NM_000218; human KCNE1: NM_000219; guinea pig Kv7.1: NM_001172821.1; guinea pig KCNE1: NM_001172972.1; rabbit Kv7.1: XM_008252197.2; rabbit KCNE1: NM_001109822. Oocytes were injected with RNA for human, guinea pig or rabbit Kv7.1 and KCNE1. The amounts injected were 12.5 ng of human Kv7.1 and 7.5 ng of human KCNE1, 1.25 ng of guinea pig Kv7.1 and 1.25 ng of guinea pig KCNE1, and 0.9 ng of rabbit Kv7.1 and 0.55 ng of rabbit KCNE1. Following injection, the oocytes were generally incubated at 16°C for 1 to 2 days.
(§2) Two-electrode voltage clamp recordings were performed at room temperature using a Dagan CA-1B amplifier (Dagan, MN, USA) or an AxoClamp 900A amplifier (Molecular Devices, CA, USA). All chemicals are from Sigma-Aldrich (Stockholm, Sweden), unless stated otherwise. N-arachidonoyl-L-serine (ARA-S) was bought from Cayman Chemicals (MI, USA) and delivered as a stock solution of 26 mM in EtOH from the supplier. The stock solution was stored at −20°C according to supplier instructions. The control solution contained (in mM): 88 NaCl, 1 KCl, 0.4 CaCl2, 0.8 MgCl2, and 15 HEPES (with pH set to 7.4 using NaOH). For ARA-S experiments, the control solution was supplemented with indicated concentrations of ARA-S. The holding voltage was set to −80 mV. Activation curves were generally generated in steps between −80 and + 60 or +80 mV in increments of 10 mV (5-s duration). The tail voltage was set to −20 or −30 mV. Control solution or ARA-S supplemented solution was continuously perfused into the oocyte chamber at a speed of 1 mL/min using a Minipuls 3 peristaltic pump (Gilson, WI, USA). ARA-S was applied until a stable effect on current amplitude was observed, achieved after approximately 10 minutes, monitored by running an application protocol stepping from a holding voltage of −80 mV to a test voltage of 0 mV every 10 seconds. In the time-matched control experiments for rabbit and guinea pig channels, experiments were performed in a similar way as with ARA-S but with EtOH only; i.e. the first control recording was performed in control solution (no vehicle) and the subsequent recordings done with vehicle only added (i.e. EtOH but no ARA-S). The tubing system and recording chamber were cleaned between cells with 70% EtOH and distilled H2O.
(§3) To quantify the voltage dependence of channel opening, tail currents were measured shortly after stepping to the tail voltage and plotted against the preceding activation voltage. […]
(In general: Two-electrode voltage clamp holds a large cell at a set potential and records current.)

The target in assay [2] is T1, human Kv7.1/KCNE1 channel (Homo sapiens, UniProt P51787).
T1 construct: expressed in transfected cells; host or cells: Xenopus laevis oocytes (RNA injection)
Described as above. It is filed as cell-based.
Excerpt: as §1, §2, §3

The target in assay [3] is rabbit Kv7.1/KCNE1 channel (Oryctolagus cuniculus, UniProt Q9MYS6). The assay is described as above. It is filed as cell-based.
Excerpt: as §1, §2, §3

The test system of assay [4] is Kv7.1/KCNE1 from all three species. Kind of assay: Two-electrode voltage clamp, summary over channels from all three species. Particulars: predicted from fits, range over human, guinea pig and rabbit channels. It is filed as cell-based.
Excerpt: Isolation of Xenopus laevis oocytes was approved by the Linköping Animal Care and Use Committee (Permits #1941 and #14515) and conforms to national and international guidelines. All procedures conform to the guidelines from Directive 2010/63/EU of the European Parliament on the protection of animals used for scientific purposes. A total of 30 female adult (minimum 1 year of age) Xenopus laevis animals (from Nasco, WI, USA) underwent surgery to isolate oocytes. The frogs were anaesthetized for 15 minutes in a bath of 1.4 g/L MS-222 Sandoz (Ethyl 3-aminobenzoate methanesulfonate, Sigma Aldrich, Stockholm). The depth of anesthesia was monitored by checking for reflexes when the paws were pinched. […]
Two-electrode voltage clamp recordings were performed at room temperature using a Dagan CA-1B amplifier (Dagan, MN, USA) or an AxoClamp 900A amplifier (Molecular Devices, CA, USA). […] ARA-S was applied until a stable effect on current amplitude was observed, achieved after approximately 10 minutes, monitored by running an application protocol stepping from a holding voltage of −80 mV to a test voltage of 0 mV every 10 seconds. […]
as §3

Assay [5] concerns the target T1, human Kv7.1/KCNE1 channel. More on the design: method as in PMID 36796231. Particulars: cited from earlier work.
For assay [6], the system named is cannabinoid receptor 1 (CB1). More on the design: method as in PMID 16467152, PMID 20649563. Particulars: cited from earlier work.
The subject of another assay is CB2. More on the design: method as in PMID 16467152, PMID 20649563. To be noted: at concentrations as high as 30 µM; cited from earlier work.
The test system of another assay is TRPV1 channels. Set-up: method as in PMID 16467152, PMID 20649563. Particulars: at concentrations as high as 30 µM; cited from earlier work.
A further assay deals with guinea pig heart. Set-up: method as in PMID 36796231. Particulars: cited from earlier work.
Assay [7] concerns human Kv7.1/KCNE1 channels. Set-up: method as in PMID 34601592. Particulars: compared between human and rabbit channels; cited from earlier work.
The subject of assay [8] is rabbit Kv7.1/KCNE1 channels. Set-up: method as in PMID 34601592. To be noted: compared between human and rabbit channels; cited from earlier work.
For assay [9], the system named is guinea pig-like Kv7.1/KCNE1 channel. Set-up: method as in PMID 32223014. To be noted: cited from earlier work.
[10] abbreviates: best fit, 0 mV, read-out: EC50 for current amplitude (Iamp) at 0 mV.
Setting [11] is: best fit, 20 mV, read-out: EC50 for current amplitude (Iamp) at 20 mV.
Where [12] appears, read: best fit, 20 mV, read-out: ΔIamp, 20 mV, max.
The mark [13] stands for this setting: best fit, 40 mV, read-out: EC50 for current amplitude (Iamp) at 40 mV.

Like-named read-outs stand apart in the source and are kept apart here.

Sequence of rabbit Kv7.1/KCNE1 channel (Q9MYS6 whole entry): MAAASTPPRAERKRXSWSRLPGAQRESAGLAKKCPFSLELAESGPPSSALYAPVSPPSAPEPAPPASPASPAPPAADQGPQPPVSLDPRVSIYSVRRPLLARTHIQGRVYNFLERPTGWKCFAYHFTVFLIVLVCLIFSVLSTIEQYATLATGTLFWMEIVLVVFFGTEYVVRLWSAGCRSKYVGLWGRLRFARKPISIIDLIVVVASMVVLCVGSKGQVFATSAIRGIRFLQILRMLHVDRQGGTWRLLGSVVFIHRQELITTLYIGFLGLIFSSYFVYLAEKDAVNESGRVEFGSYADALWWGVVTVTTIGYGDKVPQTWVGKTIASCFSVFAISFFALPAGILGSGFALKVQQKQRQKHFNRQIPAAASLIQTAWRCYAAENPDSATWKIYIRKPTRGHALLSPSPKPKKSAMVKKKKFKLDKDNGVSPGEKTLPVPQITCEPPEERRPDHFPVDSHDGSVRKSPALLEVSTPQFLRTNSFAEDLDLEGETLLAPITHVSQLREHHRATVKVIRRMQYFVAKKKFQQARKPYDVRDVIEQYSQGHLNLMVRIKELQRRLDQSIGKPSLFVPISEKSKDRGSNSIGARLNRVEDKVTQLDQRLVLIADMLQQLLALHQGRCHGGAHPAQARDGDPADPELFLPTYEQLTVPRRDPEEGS
Sequence of rabbit Kv7.1/KCNE1 channel (Q28705 whole entry partner): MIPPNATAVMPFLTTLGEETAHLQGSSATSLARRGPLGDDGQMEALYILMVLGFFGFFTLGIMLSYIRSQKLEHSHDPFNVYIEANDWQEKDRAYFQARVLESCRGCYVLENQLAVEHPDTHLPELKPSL

Take `CCCCC/C=C\C/C=C\C/C=C\C/C=C\CCCC(=O)NC(CO)C(=O)O` (stereo in doubt) [ARA-S, N-arachidonoyl-L-serine]: the EC50 in assay [1] (best fit of concentration-response, n = 5-8, read-out: EC50 for the V50 effect) is 6.2 µM; in assay [1] (setting [10]), 4.7 µM; in assay [1] (setting [11]) it was 3 µM; in assay [1] (setting [13]), 4.2 µM; in [1] (best fit, read-out: EC50 for the maximal conductance (GMAX) effect), 1.6 µM; in assay [3] (best fit of concentration-response, n = 6-7, read-out: EC50 for the V50 effect) it was 3.1 µM. Also, the EC50 in assay [3] (setting [10]) is 2.2 µM; in assay [3] (setting [11]), 1.2 µM; in assay [4] (read-out: concentration required to reach 50% of the maximal effect on V50), 3 to 9 µM; in [5] (best fit of concentration-response, human data duplicated, read-out: EC50 for the V50 effect) it was 8.9 µM; in [5] (setting [10]), 2 µM; in [5] (setting [11]) it was 1.4 µM. Also, the EC50 in assay [5] (setting [13]) is 0.6 µM; in [5] (best fit, human data duplicated, read-out: EC50 for the maximal conductance (GMAX) effect), 5.7 µM. Further, the Emax worked out at 733% in assay [1] (setting [12]); 631% in [1] (best fit, 40 mV, read-out: ΔIamp, 40 mV, max); 188% in assay [1] (best fit, maximal change in GMAX, channel has time-dependent GMAX run-up, read-out: ΔGMAX, max); 515% in assay [3] (best fit, 0 mV, read-out: ΔIamp, 0 mV, max); 225% in assay [3] (setting [12]). The “ΔV50, max” value is reported as −70.4 mV in [1] (best fit, maximal shift in V50); −60.5 mV in assay [3] (best fit, maximal shift in V50); −79.6 mV in [5] (best fit, maximal shift in V50, human data duplicated). Further, the “Itailmax;ARA-S” value is 11.2 µA in [1] (representative cell, 10 µM ARA-S (Itailmax;ctrl = 4.4 µA)); 10.1 µA in [2] (representative cell, 10 µM ARA-S (Itailmax;ctrl = 6.2 µA)); 5.7 µA in [3] (representative cell, 10 µM ARA-S (Itailmax;ctrl = 3.7 µA)). Also, the “V50;ARA-S” value in assay [1] (representative cell, 10 µM ARA-S (V50;ctrl = +44.1 mV)) is −17.5 mV; in assay [2] (representative cell, 10 µM ARA-S (V50;ctrl = +30.2 mV)), −23.0 mV; in assay [3] (representative cell, 10 µM ARA-S (V50;ctrl = +23.9 mV)), −33.5 mV. Besides, the “ARA-S effect on current amplitude at 0 mV reversed upon washout” value in [2] (10 µM of ARA-S, n = 5, mean ± sem) is given as 50 ± 5%. Also, the “anticipated maximal effect on V50” value in [4] was −60 to −80 mV. In addition, the “ΔIamp, 0 mV, max” value in assay [5] (best fit, 0 mV) is on record as “+497%”. For the same molecule, the “ΔIamp, 20 mV, max” value in assay [5] (best fit, 20 mV) is on record as “+197%”. Moreover, the “ΔIamp, 40 mV, max” value in assay [5] (best fit, 40 mV) is “+58%”. Also, in assay [5] (best fit, maximal change in GMAX), the “ΔGMAX, max” value was “+83%”. The “binding to cannabinoid receptor 1 (CB1)” value in assay [6] is given as “bind only weakly”. The “binding to CB2” value with CB2 was “no detectable binding”. The “binding to TRPV1 channels” value with TRPV1 channels was “no detectable binding”. In the assay on guinea pig heart, the “effect on prolonged QT interval” value is listed as “reversed”. The “effect on prolonged action potential duration” value in the assay with guinea pig heart was “reversed”.
Regarding `CC/C=C\C/C=C\C/C=C\C/C=C\C/C=C\C/C=C\CCC(=O)O` [DHA, docosahexaenoic acid], the effects on channel entry in assay [7] and in assay [8] was “largely comparable activating effects” throughout.
Turning to `CCCCC/C=C\C/C=C\CCCCCCCC(=O)NCC(=O)O` [Lin-Gly, linoleoyl glycine], in assay [9], the “effects on channel compared to the human Kv7.1/KCNE1 channel” value is “impaired effects”.

(Values after PMC11520554, “The endocannabinoid ARA-S facilitates the activation of cardiac Kv7.1/KCNE1 channels from different species” (Channels, 2024).)
